Source: PMC5031696, “Synthesis, Biodistribution and In vitro Evaluation of Brain Permeable High Affinity Type 2 Cannabinoid Receptor Agonists [^11C]MA2 and [^18F]MA3” (Frontiers in Neuroscience, 2016)
Values joined by “and” are separate entries in the source; they are usually repeats but may differ in a detail not shown here. Equal values may be shown once.

Legend:
[1] = plasma radiometabolite analysis; assay type: in vivo; conditions: mouse plasma, average of 2 assays
Procedure: The fraction of radiometabolites in mouse plasma at 2 and 30 min after injection of the tracer was determined by RP-HPLC analysis to investigate the in vivo stability of [^11C]MA2. […] At 2 min post injection of [^11C]MA2, 88% (n = 2) of the recovered radioactivity was assigned to the intact parent tracer. The percentage of intact [^11C]MA2 decreased to 34% at 30 min post injection of the tracer. All detected radiometabolites were more polar than the intact tracer.
After i.v. administration of [^11C]MA2 (~ 9.25 MBq) via a lateral tail vein to anesthetized NMRI mice (isoflurane 2% in oxygen), the mice were decapitated at 2 or 30 min post injection (n = 2 per time point). […] The isolated plasma was spiked with authentic non-radioactive MA2 (15 μL of 1 mg/mL solution in CH3CN) and analyzed by RP-HPLC on a Chromolith RP C18 column (3 mm x 100 mm; Merck) eluted with gradient mixtures of CH3CN (A) and 0.05 M NaOAc pH 5.5 (B) (0–5 min: Isocratic 100% B, flow rate of 0.5 mL/min; 5–10 min: Linear gradient 100 B to 10% B, flow rate of 1 mL/min; 10–13 min: Isocratic 10% B, flow rate of 1 mL/min; 13–13.1 min: Linear gradient 10 B to 100% B, flow rate of 0.5 mL/min; 13.1–15 min: Isocratic 100% B, flow rate of 0.5 mL/min). […] The radioactivity in all fractions was measured using an automated gamma counter. […]

[2] = biodistribution studies in male NMRI mice; assay type: in vivo, mouse; conditions: NMRI mice; for % ID bladder + urine / % ID blood / SUV blood / % ID brain / SUV brain / % ID heart / SUV heart / % ID intestines / % ID kidneys / SUV kidneys / % ID liver / SUV liver / % ID lungs / SUV lungs / % ID pancreas / SUV pancreas / % ID spleen / SUV spleen / % ID stomach: i.v.
Procedure: The tissue distribution and kinetics of [^11C]MA2 and [^18F]MA3 were studied in male NMRI mice at 2, 10, 30, and 60 min post injection of the tracer. The results of the biodistribution studies are presented in Table 1 ([^11C]MA2) and Table 2 ([^18F]MA3) as percentage of injected dose (% ID) and standard uptake value (SUV).
The biodistribution of [^11C]MA2 and [^18F]MA3 was studied in normal male Naval Medical Research Institute (NMRI) mice. A solution of HPLC-purified [^11C]MA2 or [^18F]MA3 was diluted with saline to obtain an ethanol concentration < 10%. Mice were anesthetized with isoflurane (2% in oxygen) and injected intravenously (i.v.) with [^11C]MA2 (~ 9.25 MBq) or [^18F]MA3 (~ 0.92 MBq) via a lateral tail vein. The mice were sacrificed by decapitation at 2, and 60 min post injection (for [^11C]MA2, n = 4) and at 2, 10, 30, or 60 min post injection (for [^18F]MA3, n = 3 or 4 per time point) and dissected. Blood, organs, and other body parts were collected in tared tubes and the radioactivity in each tube was measured using an automated gamma counter. The tubes containing selected organs and blood were weighed. For calculation of total radioactivity in blood, blood mass was assumed to be 7% of the body mass (Fritzberg et al., [1982]). Quantitative data are expressed as mean ± standard deviation (SD). Means were compared using an unpaired two-tailed student t-test. Values were considered statistically significant for P ≤ 0.05.

[3] = set-up: method as in Horti et al., 2010; conditions: rat brain, 2 min post injection; ref Horti et al., 2010; cited from earlier work
CB2 = system: CB2; set-up: method as in Evens et al., 2011; conditions: ref Evens et al., 2011; cited from earlier work

[11CH3]Oc1ccc2ncc(NCCCc3nc(-c4ccc(F)cc4Cl)no3)cc2c1 [[^11C]MA2]
% of intact tracer in blood plasma ([1]; 2 min post injection): 88% | % of intact tracer in blood plasma ([1]; 30 min post injection): 34% | accumulation in the spleen [2]: no accumulation | % ID bladder + urine ([2]; 2 min post injection): 0.2 ± 0.1 % ID | % ID bladder + urine ([2]; 60 min post injection): 4.5 % ID and 4.5 ± 1.0 % ID | % ID blood ([2]; 2 min post injection): 5.8 ± 0.4 % ID | SUV blood ([2]; 2 min post injection): 0.8 ± 0.1 | % ID blood ([2]; 60 min post injection): 0.7 ± 0.1 % ID | SUV blood ([2]; 60 min post injection): 0.1 ± 0.0 | % ID brain ([2]; 2 min post injection): 1.6 % ID and 1.6 ± 0.5 % ID | SUV brain ([2]; 2 min post injection): 1.8 ± 0.2 | % ID brain ([2]; 60 min post injection): 0.1 ± 0.0 % ID | SUV brain ([2]; 60 min post injection): 0.1 ± 0.0 | blood % ID 2 min/60 min ratio ([2]; clearance from blood): 8.6 | % ID heart ([2]; 2 min post injection): 1.4 ± 0.4 % ID | SUV heart ([2]; 2 min post injection): 3.3 ± 0.6 | % ID heart ([2]; 60 min post injection): 0.1 ± 0.0 % ID | SUV heart ([2]; 60 min post injection): 0.1 ± 0.0 | % ID intestines ([2]; 2 min post injection): 9.7 ± 0.4 % ID | % ID intestines ([2]; 60 min post injection): 63.8 % ID and 63.8 ± 2.9 % ID | % ID kidneys ([2]; 2 min post injection): 8.3 ± 1.6 % ID | SUV kidneys ([2]; 2 min post injection): 5.1 ± 0.7 | % ID kidneys ([2]; 60 min post injection): 1.0 ± 0.3 % ID | SUV kidneys ([2]; 60 min post injection): 0.6 ± 0.1 | % ID liver ([2]; 2 min post injection): 28.3 ± 2.9 % ID | SUV liver ([2]; 2 min post injection): 6.0 ± 0.1 | % ID liver ([2]; 60 min post injection): 9.1 ± 3.0 % ID | SUV liver ([2]; 60 min post injection): 2.0 and 2.0 ± 0.5 | % ID lungs ([2]; 2 min post injection): 1.4 ± 0.3 % ID | SUV lungs ([2]; 2 min post injection): 2.3 ± 0.4 | % ID lungs ([2]; 60 min post injection): 0.1 ± 0.0 % ID | SUV lungs ([2]; 60 min post injection): 0.2 ± 0.0 | % ID pancreas ([2]; 2 min post injection): 1.6 ± 0.8 % ID | SUV pancreas ([2]; 2 min post injection): 2.2 ± 1.0 | % ID pancreas ([2]; 60 min post injection): 0.2 ± 0.1 % ID | SUV pancreas ([2]; 60 min post injection): 0.3 ± 0.0 | % ID spleen ([2]; 2 min post injection): 0.5 ± 0.2 % ID | SUV spleen ([2]; 2 min post injection): 2.0 ± 0.2 | % ID spleen ([2]; 60 min post injection): 0.03 ± 0.01 % ID | SUV spleen ([2]; 60 min post injection): 0.2 ± 0.0 | % ID stomach ([2]; 2 min post injection): 1.3 ± 0.3 % ID | % ID stomach ([2]; 60 min post injection): 4.2 ± 3.9 % ID | brain % ID 2 min/60 min ratio ([2]; wash-out from brain): 18.4

Cc1sc(=NC(=O)C2C(C)(C)C2(C)C)n(CCO[11CH3])c1C [[^11C]A-836339]
SUV in brain [3]: ~ 0.5

Cc1c(CCN2CCOCC2)c2cc(O[11CH3])ccc2n1C(=O)c1cccc(Cl)c1Cl [[^11C]GW405833]
binding affinity for CB2 (CB2): 35 nM
